According to US9801901B2, “Alginate oligomers for use in overcoming multidrug resistance in bacteria” (priority 2009, dated 2017):
≈ marks a conversion by molar mass, not a printed value. Like-named read-outs stand apart in the source and are kept apart here. Marks after values point to notes of the source that are not given here.

Legend:
[1] = tested on: PA01 Pseudomonas aeruginosa ATCC 15692; experiment: MIC assay, two-fold antibiotic dilutions in CAMHB with alginate oligomer, no visible growth; assay type: cell-based; conditions: Pseudomonas aeruginosa, ATCC15692, Table 1, PA01, read-out: MIC
[2] = tested on: Pseudomonas aeruginosa ATCC 39324, mucoid type strain (R79); experiment: MIC assay, CAMHB with alginate oligomer, no visible growth; assay type: cell-based; conditions: Pseudomonas aeruginosa, ATCC39324, Table 1, R79, read-out: MIC
[3] = tested on: Pseudomonas aeruginosa CFA 24-1, clinical mucoid strain (R80); experiment: as above; assay type: cell-based; conditions: Pseudomonas aeruginosa, Table 1, R80, read-out: MIC
[4] = tested on: Pseudomonas aeruginosa MDR R22 from China (V1); experiment: as above; assay type: cell-based; conditions: Pseudomonas aeruginosa, Table 1, V1 MDR R22 PA, read-out: MIC
Description: The study described in Example 1 was repeated with the following strains of bacteria and antibiotics as detailed in Tables 4, 5 and 6.

[5] = tested on: V10 (Egypt) Acinetobacter lwoffii; experiment: as above; assay type: cell-based; conditions: Table 5, V10 MDR Acin. lwoff
[6] = tested on: V12 5725 (Wales) Klebsiella pneumoniae; experiment: as above; assay type: cell-based; conditions: Table 5, V12 MDR Kleb pneu
[7] = tested on: strains of Klebsiella pneumoniae displaying MDR phenotypes; experiment: MIC-assay, Mueller-Hinton broth with G-block alginate, 384-well, OD600 (Table 10); assay type: cell-based
Description: Minimum inhibitory concentration (MICs) of different antibiotics for strains of Klebsiella pneumoniae displaying MDR phenotypes in the presence of varying concentrations of OligoCF-5/20 (0-10%). (MIC values are expressed in μg ml^−1).

[8] = tested on: Staphylococcus aureus (MRSA) U50; experiment: MIC-assay, Mueller-Hinton broth with G-block alginate, 384-well, OD600 (Table 12); assay type: cell-based; conditions: MRSA 1040s, U50 MDR
Description: Minimum inhibitory concentration (MICs) of different antibiotics for strains of Streptococcus oralis and Staphylococcus aureus (MRSA) displaying MDR phenotypes in the presence of varying concentrations of OligoCF-5/20 (0-10%). (MIC values are expressed in μg ml^−1).

[9] = tested on: Pseudomonas aeruginosa (MDR 301, PSA, V2); experiment: MIC-assay, Mueller-Hinton broth with G-block alginate, 384-well, OD600; conditions: Pseudomonas aeruginosa, Table 8; V2; G-block (OligoCF-5/20) 10%
[10] = tested on: Pseudomonas aeruginosa (R22, PSA, V1); experiment: as above
[11] = tested on: Burkholderia cepacia (1322, V23); experiment: as above
[12] = tested on: Burkholderia cepacia (LMG18941, ATCC-BAA-246); experiment: as above
[13] = tested on: Acinetobacter lwoffii (6056, V22); experiment: as above
[14] = tested on: Acinetobacter baumannii (Egypt, V9); experiment: as above
[15] = tested on: Acinetobacter baumannii (MDR ACB, Libya, V4); experiment: as above
[16] = tested on: Acinetobacter lwoffii (Egypt, V10); experiment: as above
[17] = Table 8, G-block (OligoCF-5/20) 6%
[18] = Table 8, G-block (OligoCF-5/20) 10%
[19] = Table 9, G-block (OligoCF-5/20) 0%
[20] = Table 9, G-block (OligoCF-5/20) 2%
[21] = Table 9, G-block (OligoCF-5/20) 6%
[22] = Table 9, G-block (OligoCF-5/20) 10%

Q: What does the source list for C[C@H]1[C@H](NC(=O)/C(=N\OC(C)(C)C(=O)O)c2csc(N)n2)C(=O)N1S(=O)(=O)O [Aztreonam]?
A: MIC ([1]; OligoCF-5/20 0G): 8 µg/mL (≈ 18.4 µM); MIC ([1]; OligoCF-5/20 +2% G): 16 µg/mL (≈ 36.7 µM); MIC ([1]; OligoCF-5/20 +6% G): 4 µg/mL (≈ 9.19 µM); MIC ([1]; OligoCF-5/20 +10% G): 2 µg/mL (≈ 4.59 µM); MIC ([2]; OligoCF-5/20 0G): 2 µg/mL (≈ 4.59 µM); MIC ([2]; OligoCF-5/20 +2% G): 2 µg/mL (≈ 4.59 µM); MIC ([2]; OligoCF-5/20 +6% G): < 1 µg/mL; MIC ([2]; OligoCF-5/20 +10% G): < 1 µg/mL; MIC ([3]; OligoCF-5/20 0G): < 1 µg/mL; MIC ([3]; OligoCF-5/20 +2% G): < 1 µg/mL; MIC ([3]; OligoCF-5/20 +6% G): < 1 µg/mL; MIC ([3]; OligoCF-5/20 +10% G): < 1 µg/mL; MIC ([4]; OligoCF-5/20 0G): 32 µg/mL (≈ 73.5 µM); MIC ([4]; OligoCF-5/20 +2% G): 16 µg/mL (≈ 36.7 µM); MIC ([4]; OligoCF-5/20 +6% G): < 4 µg/mL; MIC ([4]; OligoCF-5/20 +10% G): < 4 µg/mL; MIC ([5]; Acinetobacter lwoffii, OligoCF-5/20 0G, read-out: MIC): 32 µg/mL (≈ 73.5 µM); MIC ([5]; OligoCF-5/20 +2% G): 16^† μg/ml; MIC ([5]; OligoCF-5/20 +6% G): 4^† μg/ml; MIC ([5]; OligoCF-5/20 +10% G): 1^† μg/ml; MIC ([6]; Klebsiella pneumoniae, OligoCF-5/20 0G, read-out: MIC): 256 µg/mL (≈ 588 µM); MIC ([6]; OligoCF-5/20 +2% G): 512^‡ μg/ml; MIC ([6]; OligoCF-5/20 +6% G): 128^† μg/ml; MIC ([6]; OligoCF-5/20 +10% G): 64^† μg/ml; MIC ([7]; Klebsiella pneumoniae (5712, Wales, V12) MDR, G-block (OligoCF-5/20) 0%, read-out: MIC): 4 µg/mL (≈ 9.19 µM); MIC ([7]; Klebsiella pneumoniae (5712, Wales, V12) MDR, G-block (OligoCF-5/20) 2%, read-out: MIC): 4 µg/mL (≈ 9.19 µM); MIC ([7]; Klebsiella pneumoniae (5712, Wales, V12) MDR, G-block (OligoCF-5/20) 6%, read-out: MIC): 4 µg/mL (≈ 9.19 µM); MIC ([7]; Klebsiella pneumoniae (5712, Wales, V12) MDR, G-block (OligoCF-5/20) 10%, read-out: MIC): 4 µg/mL (≈ 9.19 µM); MIC ([7]; Klebsiella pneumoniae (IR25, India, V6) MDR, G-block (OligoCF-5/20) 2%, read-out: MIC): 256 µg/mL (≈ 588 µM); MIC ([7]; Klebsiella pneumoniae (IR25, India, V6) MDR, G-block (OligoCF-5/20) 6%): 128 µg/mL (≈ 294 µM); MIC ([7]; Klebsiella pneumoniae (IR25, India, V6) MDR, G-block (OligoCF-5/20) 10%, read-out: MIC): 64 µg/mL (≈ 147 µM); MIC ([7]; Klebsiella pneumoniae (K3, India, V8) MDR, G-block (OligoCF-5/20) 2%, read-out: MIC): 256 µg/mL (≈ 588 µM); MIC ([7]; Klebsiella pneumoniae (K3, India, V8) MDR, G-block (OligoCF-5/20) 6%): 128 µg/mL (≈ 294 µM); MIC ([7]; Klebsiella pneumoniae (K3, India, V8) MDR, G-block (OligoCF-5/20) 10%): 128 µg/mL (≈ 294 µM); MIC ([8]; G-block (OligoCF-5/20) 0%, read-out: MIC): 1020 µg/mL (≈ 2350 µM); MIC ([8]; G-block (OligoCF-5/20) 2%, read-out: MIC): 1020 µg/mL (≈ 2350 µM); MIC ([8]; G-block (OligoCF-5/20) 6%): 512 µg/mL (≈ 1180 µM); MIC ([8]; G-block (OligoCF-5/20) 10%): 512 µg/mL (≈ 1180 µM); MIC [9]: 0.0625 µg/mL (≈ 0.144 µM); MIC [10, 17]: 0.0625 µg/mL (≈ 0.144 µM); MIC [10, 18]: 0.0312 µg/mL (≈ 0.0718 µM); MIC ([11]; Table 8, G-block (OligoCF-5/20) 0%): > 16 µg/mL; MIC ([11]; Table 8, G-block (OligoCF-5/20) 2%): > 16 µg/mL; MIC [11, 17]: > 16 µg/mL; MIC [11, 18]: > 16 µg/mL; MIC ([12]; ATCCBAA246|LMG18941, Table 8, G-block (OligoCF-5/20) 0%): > 16 µg/mL; MIC ([12]; ATCCBAA246|LMG18941, Table 8, G-block (OligoCF-5/20) 2%): > 16 µg/mL; MIC ([12]; ATCCBAA246|LMG18941, Table 8, G-block (OligoCF-5/20) 6%): > 16 µg/mL; MIC ([12]; ATCCBAA246|LMG18941, Table 8, G-block (OligoCF-5/20) 10%): > 16 µg/mL; MIC [13, 19]: 64 µg/mL (≈ 147 µM); MIC [13, 20]: 32 µg/mL (≈ 73.5 µM); MIC [13, 21]: 16 µg/mL (≈ 36.7 µM); MIC [13, 22]: 4 µg/mL (≈ 9.19 µM); MIC [14, 19]: > 16 µg/mL; MIC [14, 20]: > 16 µg/mL; MIC [14, 21]: > 16 µg/mL; MIC [14, 22]: > 16 µg/mL; MIC [15, 19]: 4 µg/mL (≈ 9.19 µM); MIC [15, 20]: 4 µg/mL (≈ 9.19 µM); MIC [15, 21]: 1 µg/mL (≈ 2.3 µM); MIC [15, 22]: 0.5 µg/mL (≈ 1.15 µM); MIC [16, 19]: 8 µg/mL (≈ 18.4 µM); MIC [16, 20]: 4 µg/mL (≈ 9.19 µM); MIC [16, 21]: 2 µg/mL (≈ 4.59 µM); MIC [16, 22]: 1 µg/mL (≈ 2.3 µM)
